According to ChEMBL document CHEMBL1139717, “Solid-phase combinatorial approach for the optimization of soluble epoxide hydrolase inhibitors” (Bioorg Med Chem Lett, 2006):

What was measured:
[1] = target: T1, Bifunctional epoxide hydrolase 2 (Homo sapiens) (UniProt P34913); test: Inhibition of human recombinant soluble epoxide hydrolase at 100 nM by end-point fluorescent assay
T1 sequence (whole entry): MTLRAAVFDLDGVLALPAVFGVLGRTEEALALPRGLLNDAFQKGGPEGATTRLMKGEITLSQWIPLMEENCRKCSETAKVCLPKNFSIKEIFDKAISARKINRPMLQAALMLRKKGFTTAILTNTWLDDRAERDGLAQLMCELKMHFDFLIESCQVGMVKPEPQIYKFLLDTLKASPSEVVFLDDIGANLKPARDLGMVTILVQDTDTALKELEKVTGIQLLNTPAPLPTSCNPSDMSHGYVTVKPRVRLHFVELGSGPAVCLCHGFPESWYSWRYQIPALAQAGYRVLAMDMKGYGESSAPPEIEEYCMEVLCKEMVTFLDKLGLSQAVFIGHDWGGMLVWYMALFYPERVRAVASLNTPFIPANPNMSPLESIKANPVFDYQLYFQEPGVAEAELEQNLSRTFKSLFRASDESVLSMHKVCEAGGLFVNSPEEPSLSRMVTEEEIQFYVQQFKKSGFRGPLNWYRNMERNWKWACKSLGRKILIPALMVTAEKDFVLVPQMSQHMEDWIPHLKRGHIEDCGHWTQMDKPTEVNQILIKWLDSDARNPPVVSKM

[2] = target: T2, Bifunctional epoxide hydrolase 2 (Homo sapiens, UniProt P34913); test: Inhibition of human recombinant soluble epoxide hydrolase by kinetic fluorescent assay
T2 sequence (P34913 whole entry): T1 sequence (whole entry)

SMILES | inhibition [1] [%] | IC50 [2] [nM]
COC(=O)c1ccc(NC(=O)N[C@H]2CC[C@@H](Oc3ccc(F)cc3)CC2)cc1 | 62 | 2.9
O=C(Nc1cccc(C(=O)O)c1)N[C@H]1CC[C@@H](Oc2ccc(F)cc2)CC1 | – | 590
O=C(Nc1ccccc1OC(F)(F)F)N[C@H]1CC[C@@H](Oc2ccc(F)cc2)CC1 | 2 | 100
O=C(Nc1c(Cl)cccc1Cl)N[C@H]1CC[C@@H](Oc2ccc(F)cc2)CC1 | 1 | 940
CC(C)c1cccc(C(C)C)c1NC(=O)N[C@H]1CC[C@@H](Oc2ccc(F)cc2)CC1 | 5 | 50500
O=C(Nc1ccc(OC(F)(F)F)cc1)N[C@H]1CC[C@@H](Oc2ccc(F)cc2)CC1 | 84 | –
C[C@@H](NC(=O)NC12CC3CC(CC(C3)C1)C2)c1ccccc1 | 10 | 100
CN(C)c1cccc2c(S(=O)(=O)NCCNC(=O)NC34CC5CC(CC(C5)C3)C4)cccc12 | 19 | 30
Cc1cccc(C)c1NC(=O)N[C@H]1CC[C@@H](Oc2ccc(F)cc2)CC1 | 4 | 1200

Second part, the compound after the results:

inhibition [1] [%] | IC50 [2] [nM] | SMILES
82 | 1.2 | O=C(Nc1ccc(C(F)(F)F)cc1)N[C@H]1CC[C@@H](Oc2ccc(F)cc2)CC1
76 | 1 | O=C(Nc1ccc(I)cc1)N[C@H]1CC[C@@H](Oc2ccc(F)cc2)CC1
81 | 0.7 | O=C(Nc1ccc(Cl)cc1)N[C@H]1CC[C@@H](Oc2ccc(F)cc2)CC1
80 | 0.6 | O=C(Nc1ccc(Br)cc1)N[C@H]1CC[C@@H](Oc2ccc(F)cc2)CC1
72 | 2 | COC(=O)c1cccc(NC(=O)N[C@H]2CC[C@@H](Oc3ccc(F)cc3)CC2)c1
87 | 0.5 | O=C(NC1CCCCCC1)N[C@H]1CC[C@@H](Oc2ccc(F)cc2)CC1
